Data set [1] deals with T1, endothelin receptor A (EDNRA) (Homo sapiens, UniProt P25101).
T1 construct: The protein coding region of human derived EDNRA (gene number NM_001957.2) was transduced; expressed in transfected cells
T1 sequence (P25101 21-427): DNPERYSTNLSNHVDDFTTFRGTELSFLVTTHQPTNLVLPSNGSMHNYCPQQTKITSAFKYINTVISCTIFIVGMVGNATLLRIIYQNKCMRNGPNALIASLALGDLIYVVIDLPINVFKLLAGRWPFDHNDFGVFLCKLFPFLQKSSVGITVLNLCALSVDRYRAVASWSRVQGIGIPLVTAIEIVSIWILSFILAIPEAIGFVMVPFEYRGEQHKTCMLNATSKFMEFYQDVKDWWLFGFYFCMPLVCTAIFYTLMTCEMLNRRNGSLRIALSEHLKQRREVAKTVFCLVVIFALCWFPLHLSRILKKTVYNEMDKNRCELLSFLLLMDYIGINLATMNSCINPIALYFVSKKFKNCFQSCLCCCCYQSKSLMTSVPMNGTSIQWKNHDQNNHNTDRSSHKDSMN
The data set is described as follows: Suppression of endothelin-induced Ca2+ elevation in EDNRA/293 cells. Format: cell-based. To be noted: 0.03, 0.1 or 0.3 nM endothelin, FIG. 2 and FIG. 3. An excerpt:
The protein coding region of human derived EDNRA (gene number NM_001957.2) was transduced into HEK-293 (Human Embryonic Kidney, ATCC No. CRL-1573) cells with a murine leukemia retrovirus vector, to prepare a cell line stably expressing EDNRA (EDNRA/293 cells). DMEM (Dulbecco's Modified Eagle Medium) supplemented with 10% fetal bovine serum and penicillin and streptomycin was used as the culture medium.
One day before measurement, the EDNRA/293 cells were inoculated on a 384-well plate at 5000 cells/well. On the day of measurement, a fluorescent reagent for calcium measurement (Calcium4, Molecular Device) dissolved in Hanks balanced buffer solution was added to each well, and allowed standing for about 1 hour.
Endothelin, an EDNRA ligand (activator) was applied to the wells not treated with the specimens, and the resulting activation (calcium elevation) reaction was detected by a measuring instrument (FDSS7000, Hamamatsu Photonics) to obtain a dose-dependent activation reaction as shown in FIG. 1. At doses of 1 nM or more, the activation reaction became almost saturated. For this reason, the doses of endothelin used for detection in the suppression reactions below were set at 0.03, 0.1 or 0.3 nM.

Data set [2] has as its target T2, CYP2D6 (Homo sapiens, UniProt P10635).
T2 construct: human hepatic microsomal fraction containing CYP; from tissue; host or cells: human liver microsomes
The data set is described as follows: Competitive CYP inhibition (Method 2), human hepatic microsome. Format: in vitro ADME. Particulars: bufuralol 10 μM, n = 2, read-out: IC50 score, CYP2D6. On the procedure:
(§1) The test substance was added at a final concentration of 1 or 10 μM to an enzyme solution (containing human hepatic microsome (0.2 mg/mL), 100 mM Kpi and 0.1 mM EDTA) containing a model substrate solution, and incubated for 10 minutes at 37° C. in the presence of an NADPH generating system. An equal amount of a mixed solution of acetonitrile and methanol (1:1, containing 0.05 μM dextrophan or 0.05 μM propranolol as an internal standard) was added to terminate the reaction, and metabolites of the model substrate in the reaction solution were measured by LC-MS/MS. A similar test was performed without addition of the test substance as a control test. The inhibition rate was determined from the amounts of model substrate metabolites with and without addition of the test substance at each test substance concentration, and the IC50 value was calculated from the inhibition rate (calculation method in accordance with Xenobiotica, 1999, 29(1), 53-75). […] [table]

Data set [3] deals with T3, CYP2C19 (Homo sapiens, UniProt P33261).
T3 construct: human hepatic microsomal fraction containing CYP; from tissue; host or cells: human liver microsomes
T3 sequence (P33261 whole entry): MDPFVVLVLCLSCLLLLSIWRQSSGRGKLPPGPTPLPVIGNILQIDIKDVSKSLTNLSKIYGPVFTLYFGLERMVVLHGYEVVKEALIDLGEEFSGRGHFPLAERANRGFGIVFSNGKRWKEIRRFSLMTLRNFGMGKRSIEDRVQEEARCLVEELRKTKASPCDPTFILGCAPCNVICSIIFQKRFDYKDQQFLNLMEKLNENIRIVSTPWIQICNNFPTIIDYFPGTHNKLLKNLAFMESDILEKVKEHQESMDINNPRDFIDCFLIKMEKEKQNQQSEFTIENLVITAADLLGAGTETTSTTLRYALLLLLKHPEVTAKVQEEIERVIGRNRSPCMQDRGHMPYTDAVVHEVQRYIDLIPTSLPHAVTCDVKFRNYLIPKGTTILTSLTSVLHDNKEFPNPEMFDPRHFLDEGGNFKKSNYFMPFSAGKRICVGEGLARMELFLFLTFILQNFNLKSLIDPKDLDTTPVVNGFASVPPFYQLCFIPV
The data set is described as above. In kind it is in vitro ADME. Particulars: S-mephenytoin 40 μM, n = 2, read-out: IC50 score, CYP2C19. On the procedure:
as §1

For data set [4], the target named is T4, CYP2C9 (Homo sapiens, UniProt P11712).
T4 construct: human hepatic microsomal fraction containing CYP; from tissue; host or cells: human liver microsomes
T4 sequence (P11712 whole entry): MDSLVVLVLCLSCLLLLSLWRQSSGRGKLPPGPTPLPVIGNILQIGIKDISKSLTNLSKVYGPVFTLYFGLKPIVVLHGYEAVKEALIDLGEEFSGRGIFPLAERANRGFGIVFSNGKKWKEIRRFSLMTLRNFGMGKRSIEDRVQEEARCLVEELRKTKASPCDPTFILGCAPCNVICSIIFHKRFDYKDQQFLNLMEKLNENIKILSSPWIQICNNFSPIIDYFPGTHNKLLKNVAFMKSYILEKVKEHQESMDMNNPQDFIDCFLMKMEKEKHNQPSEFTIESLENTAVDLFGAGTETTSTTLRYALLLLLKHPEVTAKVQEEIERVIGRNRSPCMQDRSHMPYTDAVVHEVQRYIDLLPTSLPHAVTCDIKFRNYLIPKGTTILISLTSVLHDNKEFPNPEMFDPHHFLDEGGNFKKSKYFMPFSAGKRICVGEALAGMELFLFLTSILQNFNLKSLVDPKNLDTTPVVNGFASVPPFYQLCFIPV
Described as above. Format: in vitro ADME. To be noted: human liver microsomes, probe tolbutamide 100 μM, n = 2, read-out: IC50 score, CYP2C9. As to the method: as §1
In general terms: Liver microsomes are vesicles of endoplasmic reticulum, rich in cytochrome P450 enzymes.

In data set [5] the target is T5, CYP1A2 (Homo sapiens, UniProt P05177).
T5 construct: human hepatic microsomal fraction containing CYP; from tissue; host or cells: human liver microsomes
T5 sequence (P05177 1-516): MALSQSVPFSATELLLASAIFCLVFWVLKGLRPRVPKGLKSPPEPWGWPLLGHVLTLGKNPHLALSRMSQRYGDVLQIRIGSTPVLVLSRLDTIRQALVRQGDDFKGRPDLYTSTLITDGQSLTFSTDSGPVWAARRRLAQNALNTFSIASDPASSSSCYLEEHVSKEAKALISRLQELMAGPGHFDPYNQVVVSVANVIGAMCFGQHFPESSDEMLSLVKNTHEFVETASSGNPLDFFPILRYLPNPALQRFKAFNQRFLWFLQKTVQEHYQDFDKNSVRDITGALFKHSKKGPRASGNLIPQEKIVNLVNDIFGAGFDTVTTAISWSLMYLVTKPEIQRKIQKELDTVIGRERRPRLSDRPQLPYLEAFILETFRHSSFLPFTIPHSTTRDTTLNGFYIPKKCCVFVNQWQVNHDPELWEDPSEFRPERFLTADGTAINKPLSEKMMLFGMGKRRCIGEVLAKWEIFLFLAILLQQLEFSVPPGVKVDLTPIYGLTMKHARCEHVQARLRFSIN
The description is as above. Format: in vitro ADME. Particulars: phenacetin 10 μM, n = 2, read-out: IC50 score, CYP1A2. As to the method:
as §1

In data set [6] the target is T6, CYP3A4 (Homo sapiens, UniProt P08684).
T6 construct: human hepatic microsomal fraction containing CYP; from tissue; host or cells: human liver microsomes
T6 sequence (P08684 whole entry): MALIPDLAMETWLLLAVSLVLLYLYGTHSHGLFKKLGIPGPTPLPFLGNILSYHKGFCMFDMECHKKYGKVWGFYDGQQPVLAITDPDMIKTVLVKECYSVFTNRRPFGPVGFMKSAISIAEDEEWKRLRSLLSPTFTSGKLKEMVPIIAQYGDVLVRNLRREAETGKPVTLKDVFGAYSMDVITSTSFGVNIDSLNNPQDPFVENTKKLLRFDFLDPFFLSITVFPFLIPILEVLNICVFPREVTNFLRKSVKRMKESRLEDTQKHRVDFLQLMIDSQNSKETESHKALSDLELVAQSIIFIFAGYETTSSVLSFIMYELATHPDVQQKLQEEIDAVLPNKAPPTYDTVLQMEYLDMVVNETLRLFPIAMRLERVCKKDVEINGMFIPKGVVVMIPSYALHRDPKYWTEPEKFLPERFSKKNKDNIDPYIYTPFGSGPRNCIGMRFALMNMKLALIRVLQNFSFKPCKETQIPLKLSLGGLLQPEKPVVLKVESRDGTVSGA
The data set is described as follows: Time-dependent CYP inhibition (Method 1), human hepatic microsome. To be noted: 30 min pre-incubation at 37° C., midazolam, average, n = 2. Format: in vitro ADME. As to the method:
(§2) Competitive inhibition of CYP was also tested as Method 2. […] The test substance was added to an enzyme solution (containing human hepatic microsome (0.2 mg/mL), 100 mM Kpi and 0.1 mM EDTA), and pre-incubated for 30 minutes at 37° C. in the presence of or absence of the coenzyme. The final concentration of the test substance was set at 0.1, 0.2, 0.4, 0.5, 1, 2, 10 or 50 μM. A NADPH generating system (60 mM MgCl2 solution containing 3.6 mM β-NADP^+, 90 mM glucose-6-phosphate and 1 Unit/mL glucose-6-phosphate dehydrogenase, incubated for 5 minutes to generate NADPH) was used as the coenzyme. After pre-incubation, part of the reaction solution was collected, diluted 10 times by mixing with a model substrate solution and the NADPH generating system, and then incubated for 10 minutes at 37° C. An equal amount of a mixed solution of acetonitrile and methanol (1:1, containing 0.05 μM dextrophan or 0.05 μM propranolol as an internal standard) was added to terminate the reaction, and metabolites of the model substrate in the reaction solution were measured by LC-MS/MS. A similar test was also performed with no test substance added as a control test. The ratio relative to the amount of model substrate metabolites in the control test was given as residual activity. The ratio of residual activity in the presence of NADPH relative to residual activity in the absence of NADPH was evaluated, and the ratio of 80% or less was defined “+”, while the ratio of above 80% was defined as “−”. [table]

Data set [7] has as its target T2, CYP2D6. The description is as above. In kind it is in vitro ADME. To be noted: 30 min pre-incubation at 37° C., bufuralol, average, n = 2. On the procedure:
as §2

Data set [8] has as its target T4, CYP2C9. The data set is described as above. Format: in vitro ADME. To be noted: 30 min pre-incubation at 37° C., tolbutamide, average, n = 2. On the procedure:
as §2

In data set [9] the target is T5, CYP1A2. The data set is described as above. In kind it is in vitro ADME. To be noted: 30 min pre-incubation at 37° C., phenacetin, average, n = 2. On the procedure: as §2
The target of data set [10] is T3, CYP2C19. Described as above. To be noted: 30 min pre-incubation at 37° C., S-mephenytoin, average, n = 2. Format: in vitro ADME.
The target in data set [11] is T6, CYP3A4. The data set is described as follows: Competitive CYP inhibition (Method 2), human hepatic microsome. Format: in vitro ADME. To be noted: midazolam 3 μM, n = 2, read-out: IC50 score, CYP3A4. As to the method: The inhibition rate was determined from the amounts of model substrate metabolites with and without addition of the test substance at each test substance concentration, and the IC50 value was calculated from the inhibition rate (calculation method in accordance with Xenobiotica, 1999, 29(1), 53-75).

The text below walks through data of patent publication US8592470B2 (Eisai R&D Management Co., Ltd., priority 2012, dated 2013).

Where only a bound is given, the exact number is not on record here.

Usually IC50 stands for the concentration that gives 50% inhibition.

T2 sequence (P10635 whole entry): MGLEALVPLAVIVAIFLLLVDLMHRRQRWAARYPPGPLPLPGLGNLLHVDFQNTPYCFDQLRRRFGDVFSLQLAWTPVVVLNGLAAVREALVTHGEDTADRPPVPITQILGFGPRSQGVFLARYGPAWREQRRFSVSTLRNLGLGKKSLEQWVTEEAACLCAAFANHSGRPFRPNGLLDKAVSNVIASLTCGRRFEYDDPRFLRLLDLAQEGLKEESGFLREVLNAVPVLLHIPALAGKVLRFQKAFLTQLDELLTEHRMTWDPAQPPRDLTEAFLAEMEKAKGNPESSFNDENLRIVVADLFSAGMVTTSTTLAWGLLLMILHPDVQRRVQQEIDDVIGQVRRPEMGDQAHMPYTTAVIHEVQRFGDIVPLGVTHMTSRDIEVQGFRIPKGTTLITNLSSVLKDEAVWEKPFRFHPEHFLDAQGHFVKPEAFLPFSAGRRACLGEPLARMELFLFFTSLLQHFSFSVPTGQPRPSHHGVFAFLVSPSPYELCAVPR

With `Cc1cc2c(cc1CC(=O)c1sccc1S(=O)(=O)Nc1onc(C)c1Cl)OCO2` [Sitaxentan, N-(4-chloro-3-methyl-1,2-oxazol-5-yl)-2-[2-(6-methyl-2H-1,3-benzodioxol-5-yl)acetyl]thiophene-3-sulfonamide, reference compound], in [1], the “Suppression of activation (calcium elevation) reaction by endothelin” value is “suppressed the activation reaction”. Also, the IC50 was more than 10 µM in data set [2], 1 to 10 µM in data set [3] and more than 10 µM in data set [5]. Besides, in data set [4], the IC50 at 10 min is less than 1 µM.
For the compound `Cc1cc2c(cc1CC(=O)c1sccc1S(=O)(=O)Nc1onc(C)c1Cl)COC2` [Example 1, N-(4-chloro-3-methyl-1,2-oxazol-5-yl)-2-[2-(6-methyl-1,3-dihydro-2-benzofuran-5-yl)acetyl]thiophene-3-sulfonamide], the “Suppression of activation (calcium elevation) reaction by endothelin” value in data set [1] is “suppressed the activation reaction”. The figures for the “Ratio of residual CYP3A4 activity in presence of NADPH relative to absence of NADPH” value in data set [6] (test substance 10 μM) and in data set [6] (test substance 50 μM) were “− (the ratio of above 80% was defined as “−”)” and “+ (the ratio of 80% or less was defined “+”)”, respectively. For the same compound, the “Ratio of residual CYP2D6 activity in presence of NADPH relative to absence of NADPH” value in [7] (test substance 10 μM) and in data set [7] (test substance 50 μM) was “− (the ratio of above 80% was defined as “−”)” each time. Moreover, the “Ratio of residual CYP2C9 activity in presence of NADPH relative to absence of NADPH” value in data set [8] (test substance 10 μM) and in data set [8] (test substance 50 μM) was “− (the ratio of above 80% was defined as “−”)” in each case. Also, the “Ratio of residual CYP1A2 activity in presence of NADPH relative to absence of NADPH” value in [9] (test substance 10 μM) and in data set [9] (test substance 50 μM) was “− (the ratio of above 80% was defined as “−”)” throughout. For the same compound, the “Ratio of residual CYP2C19 activity in presence of NADPH relative to absence of NADPH” value in data set [10] (test substance 10 μM) and in [10] (test substance 50 μM) was “− (the ratio of above 80% was defined as “−”)” throughout. Moreover, the IC50 in [2], in data set [3], in data set [5] and in [11] was more than 10 µM in each case. Further, the IC50 at 10 min in [4] was less than 1 µM.
